# Results from patent US10799508B2, “Methods for treating cancer using HSP90 inhibitors” (AI Therapeutics, Inc., priority 2017, dated 2020).
# How the values were obtained:
# p-STAT1 in HCC-38 cells = test: Western blot of IFN-γ-induced pSTAT1; format: cell-based, human
# Description: (§1) FIG. 5. HCC-38 cells treated with IFN-γ alone or co-treated with ruxolitinib (5000 nM) or MPC-3100 (10-5000 nM) were analyzed by Western blot to determine protein expression levels of HSP70 and pSTAT1. β-Actin was used as a loading control.
# Since IFN-γ stimulates the expression of its target genes, such as PD-L1, which is mediated via JAK/STAT-1 signaling, the human HCC-38 cell line was used to probe the mechanism for IFN-γ-induced PD-L1 expression.
# [1] = test system: PD-L1 cell surface expression in B16-F10 cells; test: Flow cytometry of IFN-γ-induced PD-L1 cell surface expression, B16-F10; conditions: B16-F10 (murine), IFN-γ plus MPC-3100, flow cytometry
# Description: (§4) A) SK-MEL-28 and HCC-38 (both human lines) were treated with IFN-γ (50 ng/ml), MPC-3100 (500 nM or 1000 nM) or the combination for 48 h. B) EMT-6 and B16-F10 (both murine cell lines) were also treated with IFN-γ, MPC-3100 or the combination for 24 h. PD-L1 cell surface signals were analyzed by flow cytometry. Experiments were performed in duplicate and at least 2 independent times.
# (§5) Two human cell lines were used (SK-MEL-28 and HCC-38 cells) and two murine cell lines were used (B16-F10, a melanoma cell line and EMT-6, a breast cancer cell line). All cells lines were treated with IFN-γ (50 ng/nl) and co-treated with MPC-3100 at the indicated concentrations for 48 h.
# [2] = test system: HSP70 expression in HCC-38 cells; conditions: HCC-38 treated with MPC-3100, Western blot
# Description: as §1
# [3] = test system: IDO expression in HCC-38 cells; conditions: HCC-38, MPC-3100 1000 nM or 5000 nM, 48 h, Western blot
# Description: Effect of HSP90 inhibitor MPC-3100 on IFN-γ-induced IDO protein levels. Human HCC-38 cells treated with IFN-γ alone or co-treated with ruxolitinib (5000 nM) or MPC-3100 (100, 1000 or 5000 nM) for 48 h. Lysates were analyzed by Western blot to determine protein expression levels of IDO.
# [4] = test system: PD-L1 cell surface expression in HCC-38 cells; test: Flow cytometry of IFN-γ-induced PD-L1 cell surface expression, HCC-38; conditions: HCC-38, IFN-γ, MPC-3100 500 nM or 1000 nM, 48 h
# Description: as §4, §5
# [5] = test system: IFN-γ-induced PD-L1 expression in HCC-38 cells; test: Western blot of IFN-γ-induced PD-L1 protein expression; format: cell-based, human; conditions: for IFN-γ-induced PD-L1 expression: IFN-γ 50 ng/ml, 48 h, Western blot
# Description: FIG. 3. […] Human HCC-38 cells treated with IFN-γ alone or co-treated with ruxolitinib (5000 nM) or MPC-3100 (10-5000 nM) for 48 h were analyzed by Western blot analysis to determine protein expression levels of PD-L1. Ruxolitinib served as a positive control for inhibiting JAK2. β-Actin was used as a loading control.
# [6] = test system: PD-L1 expression in U87 cells
# Description: (§2) FIG. 7. […] U87 cells were treated with MPC-3100 (500 and 1000 nM) for 24 h and analyzed by Western blotting with the indicated antibodies. β-Actin was used as a loading control.
# (§3) Lysates were then prepared and queried for protein expression using western blot analysis.
# pAkt in U87 cells = conditions: U87, MPC-3100 500 or 1000 nM, 24 h, Western blot
# Description: as §2, §3
# [7] = test system: PD-L1 cell surface expression in EMT-6 cells; test: Flow cytometry of IFN-γ-induced PD-L1 cell surface expression, EMT-6; conditions: EMT-6 (murine), IFN-γ plus MPC-3100, flow cytometry
# Description: as §4, §5
# [8] = test system: IFN-γ-induced PD-L1 expression in SK-MEL-28 cells; test: 10-point dose response validation of IFN-γ-induced PD-L1 signal; format: cell-based, human; conditions: SK-MEL-28, IFN-γ 50 ng/ml, 48 h, FIG. 2A-E
# Description: FIG. 1A-D. Validation dose response curves of HSP90 inhibitors tested in the original screen. A) CNF2024; B) PF04928473; C) tanespimycin; D) HSP-990. SK-MEL-28 cells treated with IFN-γ and with the indicated HSP90 inhibitor at different concentrations. Cells were assayed for cell viability (square, % viability on left axis) and PD-L1 expression (circle, Z-score right axis) at 48 h after treatment of IFN-γ and/or HSP90 inhibitors. Quadruplicate wells were used for determination of cell viability and PD-L1 expression. Average values were plotted. […] Lysates were probed with anti PD-L1 antibody.
# FIG. 2A-E. Dose response curves of 5 additional HSP90 inhibitors. A) STA-9090, B) CUDC-305, C) MPC-3100, D) XL-888 and E) TAS-116. SK-MEL-28 cells treated with IFN-γ (50 ng/ml) and with the indicated HSP90 inhibitor at different concentrations. Cells were assayed for cell viability (square, % viability on left axis) and PD-L1 expression (circle, Z-score right axis) at 48 h after treatment of IFN-γ and/or HSP inhibitors. Quadruplicate wells were used for determination of cell viability and PD-L1 expression. Average values were plotted.
# After assessment for viability, plates were then prepared for immunostaining. Briefly, 16% paraformaldehyde (Electron Microscopy Sciences) was added to each well to a final concentration of 4%, for 10 minutes at room temperature. Following this time, the fix was aspirated and cells were washed 3 times with PBS. Cells were blocked using blocking solution (1% bovine serum albumin in PBS) for 30 minutes. After this time, the blocking reagent was aspirated and immunostaining reagent added. The immunostaining reagent consisted of a biotin conjugated-PD-L1 antibody (eBioscience) diluted in blocking buffer. Plates were sealed and kept at 4 C overnight. The following day, plates were washed 3 times with PBS followed by addition of a streptavidin-luciferase fusion protein (Invivogen) diluted in blocking buffer, for 1 h at room temperature. After this step, the plates were washed 3 times with PBS. After the final wash, PBS was aspirated and 30 uL of QUANTI-Luc™ (Invivogen) was added per well. Plates were immediately read on a plate reader (Victor 3V plate reader, 0.1s) and luciferase activity measured.
# The raw PD-L1 intensity (the luciferase readout) corresponding to drug screen plates was normalized to blank plates containing only IFN-γ-treated wells, and the resulting ratio was used for the calculation of Z-scores.
# These 4 HSP90 inhibitors were validated using the same experimental protocol employed above (using the SK-MEL-28 cells +/−IFN-γ in 384 well plates), with the only exception to the original assay design was that each drug was now tested in a 10-point dose response assay where the concentration of drug tested was 9.8-5000 nM (2 fold serial dilution). Cells were seeded and treated in quadruplicate. Viability was assessed after 48 h of treatment of four HSP 90 inhibitors and prior to harvesting the cells for testing PD-L1 signal, as described above.
# [9] = read-out: maximum concentration (Cmax, geometric mean) in plasma; patients dosed at the recommended phase 2 dose; cited from earlier work
# [10] = test system: PD-L1 cell surface expression in SK-MEL-28 cells; test: Flow cytometry of IFN-γ-induced PD-L1 cell surface expression, SK-MEL-28; conditions: SK-MEL-28, IFN-γ, MPC-3100 500 nM or 1000 nM, 48 h
# Description: as §4, §5
compound,measurement,setting,value
C[C@H](O)C(=O)N1CCC(CCn2c(Sc3cc4c(cc3Br)OCO4)nc3c(N)ncnc32)CC1 [MPC-3100],"concentrations blocking p-STAT1, fold lower than the Cmax at the recommended Phase 2 dose",p-STAT1 in HCC-38 cells; HCC-38,at least 10 fold
same,IFN-γ-induced p-STAT1,"p-STAT1 in HCC-38 cells; HCC-38, MPC-3100 10-5000 nM, Western blot",blocks
same,IFN-γ-induced cell surface expression of PD-L1,[1],effectively inhibited
same,HSP70 expression,[2],increase
same,IFN-γ-induced IDO expression,[3],inhibited
same,IFN-γ-induced cell surface expression of PD-L1,[4],effectively inhibited
same,IFN-γ-induced PD-L1 expression,"[5]; HCC-38, MPC-3100 100 nM",reduced
same,IFN-γ-induced PD-L1 expression,"[5]; HCC-38, MPC-3100 1000 nM",completely abrogated
same,"concentrations eliciting immuno-modulatory activity toward PD-L1, fold lower than Cmax at RP2D",[5]; compared with plasma Cmax ~13 μM,at least 10 fold
same,"concentrations inhibiting PD-L1 expression, fold lower than the therapeutic dose",[6]; U87,~10 fold
same,constitutive PD-L1 expression,"[6]; U87, MPC-3100 500 or 1000 nM, 24 h, Western blot",attenuation
same,pAkt,pAkt in U87 cells,reduction
same,IFN-γ-induced cell surface expression of PD-L1,[7],effectively inhibited
same,concentration required to inhibit IFN-γ-induced PD-L1 expression compared with concentration required to affect cell proliferation,[8],far lower
same,Cmax,[9],~13 µM
same,IFN-γ-induced cell surface expression of PD-L1,[10],effectively inhibited
